Source: patent US9738634B2, “Heterocyclic amide compound and herbicide” (SYNGENTA PARTICIPATIONS AG, priority 2013, dated 2017)

What was measured:
rapeseed [1] = assay: Test Example 4: foliar treatment, effect on crop; g: rapeseed; type: in vivo; conditions: treatment dosage 320 g/ha
Outline: (§1)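 Seeds are spot-sown into sterilized diluvial soil and covered with about 1.5 cm of soil. After 14 days' greenhouse growth at 25 to 30° C, plants are sprayed on stems and leaves with diluted emulsion at the stated g/ha rate, then scored at 3 weeks.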

directly sown rice [2] = assay: Test Example 4: foliar treatment, effect on crop; b: directly sown rice; type: in vivo; conditions: treatment dosage 320 g/ha
Outline: as §1

green foxtail [3] = assay: Test Example 4: weedkilling efficacy by foliar treatment; E: green foxtail; type: in vivo; conditions: treatment dosage 320 g/ha
Outline: as §1

fig-leafed goosefoot [4] = assay: Test Example 4: weedkilling efficacy by foliar treatment; M: fig-leafed goosefoot; type: in vivo; conditions: treatment dosage 320 g/ha
Outline: as §1

Italian ryegrass [5] = assay: Test Example 4: weedkilling efficacy by foliar treatment; I: Italian ryegrass; type: in vivo; conditions: treatment dosage 320 g/ha
Outline: as §1

fig-leafed goosefoot [6] = assay: Test Example 3: weedkilling efficacy through soil treatment; M: fig-leafed goosefoot; type: in vivo; conditions: treatment dosage 320 g/ha
Outline: (§2)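 Crop and weed responses were judged three weeks after a uniform surface spray of the water-diluted emulsion at the given g/ha rate. Seeds sat beneath about 1.5 cm of sterilized diluvial soil, and boxes stood in a greenhouse at 25 to 30° C.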

bulrush [7] = assay: Test Example 1: weedkilling efficacy, preemergent weed treatment in the submerged state; B: bulrush; type: in vivo; conditions: treatment dosage 320 g/ha
Outline: (§3)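 Pots of alluvial soil flooded 4 cm deep, sown with barnyard grass, bulrush and oval-leafed pondweed and transplanted with 2.5-leaf rice. Emulsified compound applied to the water surface on sowing day at stated g/ha; greenhouse 25–30 °C, effects assessed 3 weeks after treatment.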

barnyard grass [8] = assay: Test Example 2: weedkilling efficacy, growth period weed treatment in the submerged state; A: barnyard grass; type: in vivo; conditions: treatment dosage 320 g/ha
Outline: (§4)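 Barnyard grass, bulrush and oval-leafed pondweed sown in alluvial soil under 4 cm flooding, greenhouse 25 to 30° C. At 1-2 leaf stage, water-diluted emulsion applied to the water surface at stated g/ha dosages; effects scored 3 weeks later.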

Indian mallow [9] = assay: Test Example 3: weedkilling efficacy through soil treatment; K: Indian mallow; type: in vivo; conditions: treatment dosage 320 g/ha
Outline: as §2

wheat [10] = assay: Test Example 4: foliar treatment, effect on crop; e: wheat; type: in vivo; conditions: treatment dosage 320 g/ha
Outline: as §1

birds-eye speedwell [11] = assay: Test Example 4: weedkilling efficacy by foliar treatment; p: birds-eye speedwell; type: in vivo; conditions: treatment dosage 320 g/ha
Outline: as §1

redroot pigweed [12] = assay: Test Example 4: weedkilling efficacy by foliar treatment; L: redroot pigweed; type: in vivo; conditions: treatment dosage 320 g/ha
Outline: as §1

black-grass [13] = assay: Test Example 4: weedkilling efficacy by foliar treatment; H: black-grass; type: in vivo; conditions: treatment dosage 320 g/ha
Outline: as §1

barnyard grass [14] = assay: Test Example 3: weedkilling efficacy through soil treatment; F: barnyard grass; type: in vivo; conditions: treatment dosage 320 g/ha
Outline: as §2

oval-leafed pondweed [15] = assay: Test Example 2: weedkilling efficacy, growth period weed treatment in the submerged state; C: oval-leafed pondweed; type: in vivo; conditions: treatment dosage 320 g/ha
Outline: as §4

green foxtail [16] = assay: Test Example 3: weedkilling efficacy through soil treatment; E: green foxtail; type: in vivo; conditions: treatment dosage 320 g/ha
Outline: as §2

soybean [17] = assay: Test Example 3: soil treatment, effect on crop; d: soybean; type: in vivo; conditions: treatment dosage 320 g/ha
Outline: as §2

corn [18] = assay: Test Example 4: foliar treatment, effect on crop; c: corn; type: in vivo; conditions: treatment dosage 320 g/ha
Outline: as §1

crabgrass [19] = assay: Test Example 3: weedkilling efficacy through soil treatment; D: crabgrass; type: in vivo; conditions: treatment dosage 320 g/ha
Outline: as §2

wild oat [20] = assay: Test Example 4: weedkilling efficacy by foliar treatment; G: wild oat; type: in vivo; conditions: treatment dosage 320 g/ha
Outline: as §1

barnyard grass [21] = assay: Test Example 4: weedkilling efficacy by foliar treatment; F: barnyard grass; type: in vivo; conditions: treatment dosage 320 g/ha
Outline: as §1

rapeseed [22] = assay: Test Example 3: soil treatment, effect on crop; g: rapeseed; type: in vivo; conditions: treatment dosage 320 g/ha
Outline: as §2

birds-eye speedwell [23] = assay: Test Example 3: weedkilling efficacy through soil treatment; p: birds-eye speedwell; type: in vivo; conditions: treatment dosage 320 g/ha
Outline: as §2

common wind-grass [24] = assay: Test Example 3: weedkilling efficacy through soil treatment; J: common wind-grass; type: in vivo; conditions: treatment dosage 320 g/ha
Outline: as §2

catchweed [25] = assay: Test Example 4: weedkilling efficacy by foliar treatment; O: catchweed; type: in vivo; conditions: treatment dosage 320 g/ha
Outline: as §1

oval-leafed pondweed [26] = assay: Test Example 1: weedkilling efficacy, preemergent weed treatment in the submerged state; C: oval-leafed pondweed; type: in vivo; conditions: treatment dosage 320 g/ha
Outline: as §3

Indian mallow [27] = assay: Test Example 4: weedkilling efficacy by foliar treatment; K: Indian mallow; type: in vivo; conditions: treatment dosage 320 g/ha
Outline: as §1

Italian ryegrass [28] = assay: Test Example 3: weedkilling efficacy through soil treatment; I: Italian ryegrass; type: in vivo; conditions: treatment dosage 320 g/ha
Outline: as §2

beet [29] = assay: Test Example 4: foliar treatment, effect on crop; f: beet; type: in vivo; conditions: treatment dosage 320 g/ha
Outline: as §1

black-grass [30] = assay: Test Example 3: weedkilling efficacy through soil treatment; H: black-grass; type: in vivo; conditions: treatment dosage 320 g/ha
Outline: as §2

wild oat [31] = assay: Test Example 3: weedkilling efficacy through soil treatment; G: wild oat; type: in vivo; conditions: treatment dosage 320 g/ha
Outline: as §2

barnyard grass [32] = assay: Test Example 1: weedkilling efficacy, preemergent weed treatment in the submerged state; A: barnyard grass; type: in vivo; conditions: treatment dosage 320 g/ha
Outline: as §3

directly sown rice [33] = assay: Test Example 3: soil treatment, effect on crop; b: directly sown rice; type: in vivo; conditions: treatment dosage 320 g/ha
Outline: as §2

chickweed [34] = assay: Test Example 3: weedkilling efficacy through soil treatment; N: chickweed; type: in vivo; conditions: treatment dosage 320 g/ha
Outline: as §2

redroot pigweed [35] = assay: Test Example 3: weedkilling efficacy through soil treatment; L: redroot pigweed; type: in vivo; conditions: treatment dosage 320 g/ha
Outline: as §2

catchweed [36] = assay: Test Example 3: weedkilling efficacy through soil treatment; O: catchweed; type: in vivo; conditions: treatment dosage 320 g/ha
Outline: as §2

soybean [37] = assay: Test Example 4: foliar treatment, effect on crop; d: soybean; type: in vivo; conditions: treatment dosage 320 g/ha
Outline: as §1

bulrush [38] = assay: Test Example 2: weedkilling efficacy, growth period weed treatment in the submerged state; B: bulrush; type: in vivo; conditions: treatment dosage 320 g/ha
Outline: as §4

wheat [39] = assay: Test Example 3: soil treatment, effect on crop; e: wheat; type: in vivo; conditions: treatment dosage 320 g/ha
Outline: as §2

beet [40] = assay: Test Example 3: soil treatment, effect on crop; f: beet; type: in vivo; conditions: treatment dosage 320 g/ha
Outline: as §2

chickweed [41] = assay: Test Example 4: weedkilling efficacy by foliar treatment; N: chickweed; type: in vivo; conditions: treatment dosage 320 g/ha
Outline: as §1

common wind-grass [42] = assay: Test Example 4: weedkilling efficacy by foliar treatment; J: common wind-grass; type: in vivo; conditions: treatment dosage 320 g/ha
Outline: as §1

corn [43] = assay: Test Example 3: soil treatment, effect on crop; c: corn; type: in vivo; conditions: treatment dosage 320 g/ha
Outline: as §2

crabgrass [44] = assay: Test Example 4: weedkilling efficacy by foliar treatment; D: crabgrass; type: in vivo; conditions: treatment dosage 320 g/ha
Outline: as §1

transplanted rice = assay: Test Example 1: preemergent weed treatment in the submerged state, effect on crop; a: transplanted rice; type: in vivo; conditions: treatment dosage 320 g/ha
Outline: as §3

CCC1N=CSN1NC(=O)C(C)(C)N1COC(C)=C(c2ccsc2)C1=O (centres unmarked) [B-1-02, N-(3-ethyl-1,2,4-thiadiazol-2-yl)-2-methyl-2-[6-methyl-4-oxo-5-(thiophen-3-yl)-2H-1,3-oxazin-3(4H)-yl]propionamide]
melting point: 171 to 172 °C

CCCN(C(=O)C(C)(C)N1COCN(c2ccccc2)C1=O)c1cc(C(F)(F)F)ccn1 [A-5-05, 2-methyl-2-(4-oxo-5-phenyl-1,3,5-oxadiazinan-3-yl)-N-propyl-N-[4-(trifluoromethyl)-pyridin-2-yl]propionamide]
melting point: 163 to 164 °C

CC1=C(c2ccccc2)C(=O)N(C(C)(C)C(=O)Nc2cc(C(F)F)cc(Cl)n2)CO1 [B-2-44]
g (rapeseed) effect on crop grade (rapeseed [1]): 5 (weed kill ratio 90% or more, (practically complete withering))
b (directly sown rice) effect on crop grade (directly sown rice [2]): 3 (weed kill ratio 40% or more, less than 70%)
E (green foxtail) weedkilling efficacy grade (green foxtail [3]): 5 (weed kill ratio 90% or more, (practically complete withering))
M (fig-leafed goosefoot) weedkilling efficacy grade (fig-leafed goosefoot [4]): 3 (weed kill ratio 40% or more, less than 70%)
I (Italian ryegrass) weedkilling efficacy grade (Italian ryegrass [5]): 5 (weed kill ratio 90% or more, (practically complete withering))
M (fig-leafed goosefoot) weedkilling efficacy grade (fig-leafed goosefoot [6]): 3 (weed kill ratio 40% or more, less than 70%)
B (bulrush) weedkilling efficacy grade (bulrush [7]): 5 (weed kill ratio 90% or more, (practically complete withering))
A (barnyard grass) weedkilling efficacy grade (barnyard grass [8]): 5 (weed kill ratio 90% or more, (practically complete withering))
K (Indian mallow) weedkilling efficacy grade (Indian mallow [9]): 0 (weed kill ratio 5% or less (practically no effect))
e (wheat) effect on crop grade (wheat [10]): 4 (weed kill ratio 70% or more, less than 90%)
P (birds-eye speedwell) weedkilling efficacy grade (birds-eye speedwell [11]): 5 (weed kill ratio 90% or more, (practically complete withering))
L (redroot pigweed) weedkilling efficacy grade (redroot pigweed [12]): 3 (weed kill ratio 40% or more, less than 70%)
H (black-grass) weedkilling efficacy grade (black-grass [13]): 5 (weed kill ratio 90% or more, (practically complete withering))
F (barnyard grass) weedkilling efficacy grade (barnyard grass [14]): 5 (weed kill ratio 90% or more, (practically complete withering))
C (oval-leafed pondweed) weedkilling efficacy grade (oval-leafed pondweed [15]): 5 (weed kill ratio 90% or more, (practically complete withering))
E (green foxtail) weedkilling efficacy grade (green foxtail [16]): 5 (weed kill ratio 90% or more, (practically complete withering))
d (soybean) effect on crop grade (soybean [17]): 0 (weed kill ratio 5% or less (practically no effect))
c (corn) effect on crop grade (corn [18]): 1 (weed kill ratio 5% or more, less than 20%)
D (crabgrass) weedkilling efficacy grade (crabgrass [19]): 5 (weed kill ratio 90% or more, (practically complete withering))
G (wild oat) weedkilling efficacy grade (wild oat [20]): 3 (weed kill ratio 40% or more, less than 70%)
F (barnyard grass) weedkilling efficacy grade (barnyard grass [21]): 4 (weed kill ratio 70% or more, less than 90%)
g (rapeseed) effect on crop grade (rapeseed [22]): 4 (weed kill ratio 70% or more, less than 90%)
P (birds-eye speedwell) weedkilling efficacy grade (birds-eye speedwell [23]): 4 (weed kill ratio 70% or more, less than 90%)
J (common wind-grass) weedkilling efficacy grade (common wind-grass [24]): 5 (weed kill ratio 90% or more, (practically complete withering))
O (catchweed) weedkilling efficacy grade (catchweed [25]): 5 (weed kill ratio 90% or more, (practically complete withering))
C (oval-leafed pondweed) weedkilling efficacy grade (oval-leafed pondweed [26]): 5 (weed kill ratio 90% or more, (practically complete withering))
K (Indian mallow) weedkilling efficacy grade (Indian mallow [27]): 4 (weed kill ratio 70% or more, less than 90%)
I (Italian ryegrass) weedkilling efficacy grade (Italian ryegrass [28]): 5 (weed kill ratio 90% or more, (practically complete withering))
f (beet) effect on crop grade (beet [29]): 3 (weed kill ratio 40% or more, less than 70%)
H (black-grass) weedkilling efficacy grade (black-grass [30]): 5 (weed kill ratio 90% or more, (practically complete withering))
G (wild oat) weedkilling efficacy grade (wild oat [31]): 2 (weed kill ratio 20% or more, less than 40%)
A (barnyard grass) weedkilling efficacy grade (barnyard grass [32]): 5 (weed kill ratio 90% or more, (practically complete withering))
b (directly sown rice) effect on crop grade (directly sown rice [33]): 3 (weed kill ratio 40% or more, less than 70%)
N (chickweed) weedkilling efficacy grade (chickweed [34]): 3 (weed kill ratio 40% or more, less than 70%)
L (redroot pigweed) weedkilling efficacy grade (redroot pigweed [35]): 0 (weed kill ratio 5% or less (practically no effect))
O (catchweed) weedkilling efficacy grade (catchweed [36]): 0 (weed kill ratio 5% or less (practically no effect))
d (soybean) effect on crop grade (soybean [37]): 4 (weed kill ratio 70% or more, less than 90%)
B (bulrush) weedkilling efficacy grade (bulrush [38]): 5 (weed kill ratio 90% or more, (practically complete withering))
e (wheat) effect on crop grade (wheat [39]): 1 (weed kill ratio 5% or more, less than 20%)
f (beet) effect on crop grade (beet [40]): 3 (weed kill ratio 40% or more, less than 70%)
N (chickweed) weedkilling efficacy grade (chickweed [41]): 4 (weed kill ratio 70% or more, less than 90%)
J (common wind-grass) weedkilling efficacy grade (common wind-grass [42]): 5 (weed kill ratio 90% or more, (practically complete withering))
c (corn) effect on crop grade (corn [43]): 0 (weed kill ratio 5% or less (practically no effect))
D (crabgrass) weedkilling efficacy grade (crabgrass [44]): 4 (weed kill ratio 70% or more, less than 90%)
a (transplanted rice) effect on crop grade (transplanted rice): 5 (weed kill ratio 90% or more, (practically complete withering))
